Laboratory results reported in ChEMBL document CHEMBL1201862, “PubChem BioAssay data set” (2004).
Blank lines part the entries; values can stand above or below the molecule they belong to. Active and inactive are the calls of the source.

Assays:
[1] = biological target: T1, RNA-binding protein pos-1 (Caenorhabditis elegans, UniProt G5EF15); experiment: inhibitors of POS-1/mex-3 RNA binding, dose response, biochemical, fluorescence polarization (AID 1964);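 further: purified POS-1 fused to maltose binding protein made in E. coli; potency of compounds blocking POS-1 binding to fluorescent RNA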
T1 sequence (G5EF15 whole entry): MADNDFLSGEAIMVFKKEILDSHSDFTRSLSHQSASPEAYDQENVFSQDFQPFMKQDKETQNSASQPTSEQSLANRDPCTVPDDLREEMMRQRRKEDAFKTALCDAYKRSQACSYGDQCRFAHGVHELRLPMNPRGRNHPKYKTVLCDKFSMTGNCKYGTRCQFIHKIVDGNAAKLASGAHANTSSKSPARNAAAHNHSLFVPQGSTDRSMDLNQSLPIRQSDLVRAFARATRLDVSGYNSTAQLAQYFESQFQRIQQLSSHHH

[2] = biological target: Protein Tat (Human immunodeficiency virus type 1 group M subtype B (isolate HXB2)(HIV-1), UniProt P04608); format: functional;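 further: tat binding to TAR RNA read out by fluorescence polarization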
Protein Tat, sequence (P04608 whole entry): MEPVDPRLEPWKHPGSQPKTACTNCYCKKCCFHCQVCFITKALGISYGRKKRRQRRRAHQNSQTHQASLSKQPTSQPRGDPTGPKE

[3] = biological target: T2, Histone-lysine N-methyltransferase NSD2 (Homo sapiens, UniProt O96028); format: biochemical
T2 sequence (O96028 whole entry): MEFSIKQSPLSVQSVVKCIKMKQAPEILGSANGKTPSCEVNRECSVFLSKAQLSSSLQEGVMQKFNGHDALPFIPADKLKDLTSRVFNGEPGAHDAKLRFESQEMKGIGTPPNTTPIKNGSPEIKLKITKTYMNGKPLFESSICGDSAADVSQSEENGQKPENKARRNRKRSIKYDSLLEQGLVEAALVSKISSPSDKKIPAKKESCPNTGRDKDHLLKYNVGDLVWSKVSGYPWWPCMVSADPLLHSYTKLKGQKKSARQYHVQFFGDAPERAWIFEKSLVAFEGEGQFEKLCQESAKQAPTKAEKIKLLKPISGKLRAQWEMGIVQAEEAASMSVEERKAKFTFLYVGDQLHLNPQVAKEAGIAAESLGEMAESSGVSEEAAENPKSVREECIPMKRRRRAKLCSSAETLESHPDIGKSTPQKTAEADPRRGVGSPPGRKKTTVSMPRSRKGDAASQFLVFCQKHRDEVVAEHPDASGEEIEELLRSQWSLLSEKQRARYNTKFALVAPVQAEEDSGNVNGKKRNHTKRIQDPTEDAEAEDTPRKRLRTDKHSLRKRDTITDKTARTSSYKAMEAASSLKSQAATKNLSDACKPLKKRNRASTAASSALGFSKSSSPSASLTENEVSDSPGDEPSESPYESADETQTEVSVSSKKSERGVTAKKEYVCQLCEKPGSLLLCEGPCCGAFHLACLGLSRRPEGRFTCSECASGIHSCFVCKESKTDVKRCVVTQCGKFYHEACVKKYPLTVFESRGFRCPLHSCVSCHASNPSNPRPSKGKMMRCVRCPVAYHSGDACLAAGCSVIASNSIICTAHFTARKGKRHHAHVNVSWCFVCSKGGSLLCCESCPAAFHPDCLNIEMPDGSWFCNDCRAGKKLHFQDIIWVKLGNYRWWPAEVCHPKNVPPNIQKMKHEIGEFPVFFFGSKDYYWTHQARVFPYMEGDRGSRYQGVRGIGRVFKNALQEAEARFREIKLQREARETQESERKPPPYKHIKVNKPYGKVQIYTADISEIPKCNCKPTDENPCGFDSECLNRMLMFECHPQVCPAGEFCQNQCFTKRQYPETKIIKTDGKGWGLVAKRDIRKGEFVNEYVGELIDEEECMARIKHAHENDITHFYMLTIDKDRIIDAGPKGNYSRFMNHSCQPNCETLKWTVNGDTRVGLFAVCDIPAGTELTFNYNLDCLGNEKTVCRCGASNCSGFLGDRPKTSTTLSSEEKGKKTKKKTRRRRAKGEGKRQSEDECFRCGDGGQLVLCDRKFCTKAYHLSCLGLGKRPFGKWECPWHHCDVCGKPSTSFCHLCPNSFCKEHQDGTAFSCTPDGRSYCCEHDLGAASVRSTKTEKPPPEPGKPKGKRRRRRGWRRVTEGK

[4] = biological target: T3, Zinc finger protein mex-5 (Caenorhabditis elegans, UniProt Q9XUB2); experiment: MEX-5/TCR-2 RNA interaction inhibitors, dose response, biochemical, C. elegans, fluorescence polarization (AID 1960)
T3 sequence (Q9XUB2 whole entry): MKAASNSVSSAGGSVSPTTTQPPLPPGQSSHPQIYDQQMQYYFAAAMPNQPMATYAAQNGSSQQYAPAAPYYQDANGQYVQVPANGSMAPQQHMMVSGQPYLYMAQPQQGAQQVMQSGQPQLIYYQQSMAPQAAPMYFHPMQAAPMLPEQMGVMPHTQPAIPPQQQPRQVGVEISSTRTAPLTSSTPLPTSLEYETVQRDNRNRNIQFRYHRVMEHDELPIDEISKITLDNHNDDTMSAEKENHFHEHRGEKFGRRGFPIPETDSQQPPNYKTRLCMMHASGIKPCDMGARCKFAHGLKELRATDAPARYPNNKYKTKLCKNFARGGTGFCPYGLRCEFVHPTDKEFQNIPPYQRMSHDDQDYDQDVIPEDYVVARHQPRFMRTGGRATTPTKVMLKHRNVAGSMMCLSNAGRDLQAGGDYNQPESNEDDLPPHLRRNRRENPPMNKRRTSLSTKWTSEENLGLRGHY

[5] = HepG2 cell cytotoxicity, dose response, cytotoxicity control for Shn3 inhibitor project, CellTiter-Glo, cherry-picked (AID 624134); format: functional, cell-based
[6] = reduction of Shn3 3'UTR firefly luciferase signal, dose response, Schnurri-3 inhibitor project, cell-based, Clone20 osteoblasts, cherry-pick, set 2 (AID 720490); format: functional;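 further: actives lower the luminescence signal as inhibitors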
[7] = Shn3 3'UTR reporter inhibitors, dose response, cell-based, Clone20 osteoblasts, firefly luciferase, cherry-picked (AID 624132); format: functional;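 further: firefly luciferase luminescence from reporter carrying the Shn3 3'UTR in osteoblasts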
[8] = control 3'UTR Renilla luciferase suppression, dose response, counter-screen for Shn3 inhibitor project, cell-based, Clone20-Shn3RL, cherry-picked (AID 624133); format: functional
[9] = test system: HEK293; experiment: HEK293T cell cytotoxicity, dose response, cytotoxicity control, ATP luminescence, cherry-pick samples (AID 687005); format: functional, cell-based; details: Homo sapiens;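 further: cells exposed to compound for 48 hours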
[10] = HEK293 Cytotoxicity Assay Measured in Cell-Based System Using Plate Reader - 7071-01_Inhibitor_Dose_CherryPick_Activity_Set2.; format: functional
[11] = P. falciparum Dd2 growth inhibitors, dose response, SYBR Green, cherry-picked samples (AID 1159567); format: functional, cell-based
[12] = HepG2 cell cytotoxicity, dose response, cytotoxicity control, cherry-picked samples (AID 1159577); format: functional, cell-based
[13] = P. falciparum ATP4 D1247Y mutant growth inhibitors, dose response, NITD609-resistant line, SYBR Green, dry powder (AID 1159571); format: functional, cell-based;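 further: parasites synchronized at ring stage by sorbitol before testing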
[14] = P. falciparum 3D7-ScDHODH growth inhibitors, dose response, SYBR Green, dry powder samples (AID 1159570); format: functional, cell-based;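 further: parasite growth measured after 72 hours of compound exposure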
[15] = HepG2 cell cytotoxicity, dose response, cytotoxicity control, plate reader, dry powder samples (AID 1159569); format: functional, cell-based;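 further: inhibitor potency with signal falling toward the positive control level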
[16] = P. falciparum Dd2 growth inhibitors, dose response, SYBR Green, dry powder samples (AID 1159566); format: functional, cell-based;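 further: potency for growth inhibition with lower SYBR green DNA signal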
[17] = RKO cell viability reduction, dose response, CellTiter-Glo luminescence (AID 1117322); format: functional
[18] = cytotoxicity in HPDE-C7 cells, cell-based, fluorescence, HTS (AID 430); format: functional; details: Homo sapiens
[19] = CellTiter-Glo luminescent dose response of DLD-1 viability loss (AID 1117352); format: functional
[20] = SNU-C1 cell viability reduction, dose response, CellTiter-Glo luminescence (AID 1117323); format: functional, cell-based
[21] = cytotoxicity toward Colo320 cells – cell-based, CellTiter-Glo luminescence, IC50, dose response (AID 1117334); format: functional; details: COLO 320
[22] = Concentration-dependent survival of SW480 colon cancer line, luminescence detection with CellTiter-Glo, half-maximal inhibitory concentration (AID 1117338); format: functional
[23] = cytotoxicity in KRAS-transformed pancreatic duct cells, primary screen, cell-based, fluorescence, HTS (AID 431); format: functional; details: Homo sapiens;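 further: cell line used: HPDE-C7K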
[24] = cytotoxicity toward HCT116 cells – cell-based, CellTiter-Glo luminescence, IC50, dose response (AID 1117332); format: functional; details: HCT-116
[25] = biological target: Large T antigen (Simian virus 40, UniProt P03070); format: functional, Betapolyomavirus macacae;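 further: Confirmatory-stage PubChem screen for compounds that inhibit SV40 T antigen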
Large T antigen, sequence (P03070 whole entry): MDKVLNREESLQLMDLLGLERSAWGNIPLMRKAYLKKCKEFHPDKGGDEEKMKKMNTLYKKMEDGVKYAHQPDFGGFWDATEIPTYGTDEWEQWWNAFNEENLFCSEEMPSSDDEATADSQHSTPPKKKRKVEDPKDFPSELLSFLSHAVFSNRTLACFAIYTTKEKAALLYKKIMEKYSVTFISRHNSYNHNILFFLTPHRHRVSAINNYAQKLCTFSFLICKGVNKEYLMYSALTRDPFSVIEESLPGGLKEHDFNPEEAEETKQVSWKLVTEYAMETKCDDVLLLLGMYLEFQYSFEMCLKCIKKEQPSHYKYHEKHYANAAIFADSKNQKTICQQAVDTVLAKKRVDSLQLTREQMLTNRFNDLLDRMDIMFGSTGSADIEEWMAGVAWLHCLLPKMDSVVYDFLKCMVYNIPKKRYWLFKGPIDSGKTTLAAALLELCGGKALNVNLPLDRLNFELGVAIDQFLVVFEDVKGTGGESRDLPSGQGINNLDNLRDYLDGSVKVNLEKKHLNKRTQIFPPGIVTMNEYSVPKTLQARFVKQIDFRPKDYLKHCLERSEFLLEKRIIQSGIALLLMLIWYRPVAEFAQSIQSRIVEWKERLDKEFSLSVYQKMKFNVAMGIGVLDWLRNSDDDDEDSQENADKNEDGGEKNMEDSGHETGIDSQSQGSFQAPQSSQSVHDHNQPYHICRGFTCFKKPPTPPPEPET

[26] = HCT116 cell viability decrease, GSK3B pretreatment – CellTiter-Glo, IC50, dose response (AID 1117339); format: functional; details: HCT-116
[27] = Glucagon-like peptide 1 release potency, NCI-H716 cell line, dose-response, half-maximal inhibitory concentration (AID 1117344); format: functional, cell-based

EC50 [1]: > 300 µM (not active)
IC50 [2]: 4.84 µM (inconclusive)
AC50 [3]: 12.2 µM (active)
EC50 [4]: > 300 µM (not active)
SMILES: O=C(c1coc(=O)c(Br)c1)N1CCCc2ccccc21

SMILES: COc1ccc(CNC(=O)C(C)n2ccc3cc(S(=O)(=O)N4CCCCCC4)ccc32)cc1 (stereo not drawn)
AC50 [5]: > 70 µM (inactive)
AC50 [6]: 17.4 µM (active)
AC50 [7]: 0.518 µM (active)

SMILES: CCOC(=O)c1oc2ccc(S(=O)(=O)n3nc(-c4ccc(OC)cc4)cc3N)cc2c1C
AC50 [5]: 60 µM (active)
AC50 [6]: 4.68 µM (active)
AC50 [7]: 1.99 µM (active)
AC50 [8]: 30 µM (active)

SMILES: Cc1cccc(-c2ccc([C@@H]3[C@@H](CO)N4CCCCN(S(=O)(=O)c5ccccc5C)C[C@@H]34)cc2)c1
AC50 [9]: 19.3 µM (active)
AC50 [10]: 19.3 µM (active)

SMILES: COc1cccc(-c2ccc([C@H]3[C@H](C#N)N(C(=O)Cc4ccncc4)[C@H]3CO)cc2)c1
AC50 [11]: 4.28 µM (active)
AC50 [12]: 33.8 µM (active)

SMILES: COc1cc(CN2C[C@@H]3N[C@H](C2)[C@H]3c2ccc(-c3ccncc3)cc2)cc(OC)c1
AC50 [11]: 1.63 µM (active)
AC50 [13]: 0.886 µM (active)
AC50 [14]: 1.33 µM (active)
AC50 [15]: 19.6 µM (active)
AC50 [16]: 1.16 µM (active)

SMILES: N#C[C@@H]1[C@H](c2ccc(C#CC3CCCCC3)cc2)[C@@H](CO)N1C(=O)Cc1ccccn1
AC50 [11]: 3.79 µM (active)
AC50 [12]: > 39 µM (inactive)

SMILES: C=C(CC)C(=O)c1ccc(OCC(=O)O)c(Cl)c1Cl [ETHACRYNIC ACID]
IC50 [17]: > 6.67 µM (inactive)
EC50 [18]: 10.4 µM (active)
IC50 [19]: 11.9 µM (inactive)
IC50 [20]: > 20 µM (inactive)
IC50 [21]: > 20 µM (inactive)
IC50 [22]: > 6.67 µM (inactive)
EC50 [23]: 11.3 µM (active)
IC50 [24]: > 20 µM (inactive)
IC50 [25]: > 100 µM (active)
IC50 [26]: 12.2 µM (inactive)

SMILES: Cc1ccc(C(=O)Nc2ccc(S(=O)(=O)O)c3cc(S(=O)(=O)O)cc(S(=O)(=O)O)c23)cc1NC(=O)c1cccc(NC(=O)Nc2cccc(C(=O)Nc3cc(C(=O)Nc4ccc(S(=O)(=O)O)c5cc(S(=O)(=O)O)cc(S(=O)(=O)O)c45)ccc3C)c2)c1 [SURAMIN]
IC50 [27]: > 40 µM (inactive)
